Assay results from patent publication US20220281848A1, “PYRAZOLE-SUBSTITUTED PYRROLIDINONES AS HERBICIDES” (FMC Corporation, priority 2019, published 2022).

Tested on: plants
Assay: Test D pre-emergence, other plants of Tables D1 and D3
Type: in vivo
Details: preemergent, 20 DAA
In short: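 Seeds treated with herbicide safener; sown in soil; glasshouse, 16 h light, 65% humidity. Sprayed day 1 (pre) or ~day 12 (post). Spray in 0.2% v/v adjuvant. Scored 0–100 damage: 20 DAA pre, 15 d post.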

Structure (SMILES): CCn1nc([C@@H]2CN(C)C(=O)[C@H]2C(=O)Nc2cccc(F)c2F)c2cccc(F)c21 [Compound 14]
- damage to plant (100=total damage to plant; 0=no damage to plant), ABUTH (rate 15): 0
- damage to plant (100=total damage to plant; 0=no damage to plant), ABUTH (rate 30): 0
- damage to plant (100=total damage to plant; 0=no damage to plant), ABUTH (rate 60): 0
- damage to plant (100=total damage to plant; 0=no damage to plant), ABUTH (rate 130): 0
- damage to plant (100=total damage to plant; 0=no damage to plant), ABUTH (rate 250): 10
- damage to plant (100=total damage to plant; 0=no damage to plant), ABUTH (rate 500): 20
- damage to plant (100=total damage to plant; 0=no damage to plant), AMARE (rate 15): 0
- damage to plant (100=total damage to plant; 0=no damage to plant), AMARE (rate 30): 0
- damage to plant (100=total damage to plant; 0=no damage to plant), AMARE (rate 60): 0
- damage to plant (100=total damage to plant; 0=no damage to plant), AMARE (rate 130): 0
- damage to plant (100=total damage to plant; 0=no damage to plant), AMARE (rate 250): 0
- damage to plant (100=total damage to plant; 0=no damage to plant), AMARE (rate 500): 0
- damage to plant (100=total damage to plant; 0=no damage to plant), BIDPI (rate 15): 0
- damage to plant (100=total damage to plant; 0=no damage to plant), BIDPI (rate 30): 0
- damage to plant (100=total damage to plant; 0=no damage to plant), BIDPI (rate 60): 0
- damage to plant (100=total damage to plant; 0=no damage to plant), BIDPI (rate 130): 0
- damage to plant (100=total damage to plant; 0=no damage to plant), BIDPI (rate 250): 0
- damage to plant (100=total damage to plant; 0=no damage to plant), BIDPI (rate 500): 0
- damage to plant (100=total damage to plant; 0=no damage to plant), BRAPL (rate 15): 30
- damage to plant (100=total damage to plant; 0=no damage to plant), BRAPL (rate 30): 40
- damage to plant (100=total damage to plant; 0=no damage to plant), BRAPL (rate 60): 60
- damage to plant (100=total damage to plant; 0=no damage to plant), BRAPL (rate 130): 90
- damage to plant (100=total damage to plant; 0=no damage to plant), BRAPL (rate 250): 90
- damage to plant (100=total damage to plant; 0=no damage to plant), BRAPL (rate 500): 90
- damage to plant (100=total damage to plant; 0=no damage to plant), CYPES (rate 15): 0
- damage to plant (100=total damage to plant; 0=no damage to plant), CYPES (rate 30): 0
- damage to plant (100=total damage to plant; 0=no damage to plant), CYPES (rate 60): 0
- damage to plant (100=total damage to plant; 0=no damage to plant), CYPES (rate 130): 0
- damage to plant (100=total damage to plant; 0=no damage to plant), CYPES (rate 250): 0
- damage to plant (100=total damage to plant; 0=no damage to plant), CYPES (rate 500): 0
- damage to plant (100=total damage to plant; 0=no damage to plant), DIGSA (rate 15): 60
- damage to plant (100=total damage to plant; 0=no damage to plant), DIGSA (rate 30): 80
- damage to plant (100=total damage to plant; 0=no damage to plant), DIGSA (rate 60): 90
- damage to plant (100=total damage to plant; 0=no damage to plant), DIGSA (rate 130): 90
- damage to plant (100=total damage to plant; 0=no damage to plant), DIGSA (rate 250): 90
- damage to plant (100=total damage to plant; 0=no damage to plant), DIGSA (rate 500): 90
- damage to plant (100=total damage to plant; 0=no damage to plant), ECHCG (rate 15): 30
- damage to plant (100=total damage to plant; 0=no damage to plant), ECHCG (rate 30): 50
- damage to plant (100=total damage to plant; 0=no damage to plant), ECHCG (rate 60): 70
- damage to plant (100=total damage to plant; 0=no damage to plant), ECHCG (rate 130): 90
- damage to plant (100=total damage to plant; 0=no damage to plant), ECHCG (rate 250): 90
- damage to plant (100=total damage to plant; 0=no damage to plant), ECHCG (rate 500): 90
- damage to plant (100=total damage to plant; 0=no damage to plant), ELEIN (rate 15): 0
- damage to plant (100=total damage to plant; 0=no damage to plant), ELEIN (rate 30): 0
- damage to plant (100=total damage to plant; 0=no damage to plant), ELEIN (rate 60): 0
- damage to plant (100=total damage to plant; 0=no damage to plant), ELEIN (rate 130): 0
- damage to plant (100=total damage to plant; 0=no damage to plant), ELEIN (rate 250): 0
- damage to plant (100=total damage to plant; 0=no damage to plant), ELEIN (rate 500): 0
- damage to plant (100=total damage to plant; 0=no damage to plant), EPHHL (rate 15): 0
- damage to plant (100=total damage to plant; 0=no damage to plant), EPHHL (rate 30): 0
- damage to plant (100=total damage to plant; 0=no damage to plant), EPHHL (rate 60): 0
- damage to plant (100=total damage to plant; 0=no damage to plant), EPHHL (rate 130): 0
- damage to plant (100=total damage to plant; 0=no damage to plant), EPHHL (rate 250): 10
- damage to plant (100=total damage to plant; 0=no damage to plant), EPHHL (rate 500): 20
- damage to plant (100=total damage to plant; 0=no damage to plant), GLXMA (rate 15): 0
- damage to plant (100=total damage to plant; 0=no damage to plant), GLXMA (rate 30): 0
- damage to plant (100=total damage to plant; 0=no damage to plant), GLXMA (rate 60): 0
- damage to plant (100=total damage to plant; 0=no damage to plant), GLXMA (rate 130): 0
- damage to plant (100=total damage to plant; 0=no damage to plant), GLXMA (rate 250): 0
- damage to plant (100=total damage to plant; 0=no damage to plant), GLXMA (rate 500): 0
- damage to plant (100=total damage to plant; 0=no damage to plant), IPOHE (rate 15): 0
- damage to plant (100=total damage to plant; 0=no damage to plant), IPOHE (rate 30): 0
- damage to plant (100=total damage to plant; 0=no damage to plant), IPOHE (rate 60): 0
- damage to plant (100=total damage to plant; 0=no damage to plant), IPOHE (rate 130): 0
- damage to plant (100=total damage to plant; 0=no damage to plant), IPOHE (rate 250): 0
- damage to plant (100=total damage to plant; 0=no damage to plant), IPOHE (rate 500): 0
- damage to plant (100=total damage to plant; 0=no damage to plant), ORYSA (rate 15): 0
- damage to plant (100=total damage to plant; 0=no damage to plant), ORYSA (rate 30): 0
- damage to plant (100=total damage to plant; 0=no damage to plant), ORYSA (rate 60): 0
- damage to plant (100=total damage to plant; 0=no damage to plant), ORYSA (rate 130): 0
- damage to plant (100=total damage to plant; 0=no damage to plant), ORYSA (rate 250): 0
- damage to plant (100=total damage to plant; 0=no damage to plant), ORYSA (rate 500): 0
- damage to plant (100=total damage to plant; 0=no damage to plant), PANMI (rate 15): 0
- damage to plant (100=total damage to plant; 0=no damage to plant), PANMI (rate 30): 0
- damage to plant (100=total damage to plant; 0=no damage to plant), PANMI (rate 60): 0
- damage to plant (100=total damage to plant; 0=no damage to plant), PANMI (rate 130): 0
- damage to plant (100=total damage to plant; 0=no damage to plant), PANMI (rate 250): 30
- damage to plant (100=total damage to plant; 0=no damage to plant), PANMI (rate 500): 80
- damage to plant (100=total damage to plant; 0=no damage to plant), SETFA (rate 15): 30
- damage to plant (100=total damage to plant; 0=no damage to plant), SETFA (rate 30): 70
- damage to plant (100=total damage to plant; 0=no damage to plant), SETFA (rate 60): 80
- damage to plant (100=total damage to plant; 0=no damage to plant), SETFA (rate 130): 80
- damage to plant (100=total damage to plant; 0=no damage to plant), SETFA (rate 250): 90
- damage to plant (100=total damage to plant; 0=no damage to plant), SETFA (rate 500): 90
- damage to plant (100=total damage to plant; 0=no damage to plant), SIDSP (rate 15): 10
- damage to plant (100=total damage to plant; 0=no damage to plant), SIDSP (rate 30): 10
- damage to plant (100=total damage to plant; 0=no damage to plant), SIDSP (rate 60): 30
- damage to plant (100=total damage to plant; 0=no damage to plant), SIDSP (rate 130): 30
- damage to plant (100=total damage to plant; 0=no damage to plant), SIDSP (rate 250): 80
- damage to plant (100=total damage to plant; 0=no damage to plant), SIDSP (rate 500): 80
- damage to plant (100=total damage to plant; 0=no damage to plant), SORVU (rate 15): 0
- damage to plant (100=total damage to plant; 0=no damage to plant), SORVU (rate 30): 0
- damage to plant (100=total damage to plant; 0=no damage to plant), SORVU (rate 60): 0
